Drawing on patent US9023865B2, “Compounds that are ERK inhibitors” (Merck Sharp & Dohme Corp., priority 2011, dated 2015), this text covers IC50 for 62 compounds.

Structures are written as SMILES. Like-named read-outs stand apart in the source and are kept apart here.

The test deals with Active Human ERK2 (hERK2) (Homo sapiens (Human), UniProt P28482). The experiment in a line: Active Human ERK2 (hERK2) Activity Assay (IMAP-FP). In kind it is biochemical. As for the experimental part: Assays Active Human ERK2 (hERK2) Activity Assay:
Activated ERK2 activity was determined in an IMAP-FP assay (Molecular Devices). […] The final reaction in each well of 25 μL consists of 0.5 nM hERK2, 900 nM unlabeled peptide, 80 nM labeled-peptide, and 30 μM ATP. Phosphorylation reactions were allowed to proceed for 60 minutes and were immediately quenched by the addition of […] IMAP detection beads (1:1000 dilutions) in IMAP binding buffer (Molecular Devices) with 24 mM NaCl. Plates were read on EnVision reader after 60 minutes binding equilibration using Fluorescence Polarization protocol (Perkin Elmer).

[1] abbreviates: phosphorylated active hERK2, 30 μM ATP, average, read-out: ERK 2 Human average IC50.
Setting [2] is: read-out: AERK2 IC50 (Active human ERK2 Activity Assay).

As a reminder, the IC50 is the concentration that gives 50% inhibition.

Active Human ERK2 (hERK2), sequence (P28482 whole entry): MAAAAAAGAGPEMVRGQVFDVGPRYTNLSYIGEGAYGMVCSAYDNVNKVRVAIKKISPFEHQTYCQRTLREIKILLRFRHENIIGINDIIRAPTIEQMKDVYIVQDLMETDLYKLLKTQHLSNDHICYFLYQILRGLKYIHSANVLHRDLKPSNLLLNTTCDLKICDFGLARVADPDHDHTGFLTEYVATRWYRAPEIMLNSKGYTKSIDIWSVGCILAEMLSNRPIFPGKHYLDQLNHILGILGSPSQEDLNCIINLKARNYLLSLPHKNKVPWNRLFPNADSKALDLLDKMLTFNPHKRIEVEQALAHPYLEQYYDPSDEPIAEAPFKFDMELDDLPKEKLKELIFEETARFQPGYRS

Turning to `Cc1cc(-c2n[nH]c3cc(NC(=O)NCc4ccc(F)cc4)ncc23)ccn1` [Example 273], the IC50 under setting [1] stood at 0.945 nM.

Consider `Cc1cc(-c2n[nH]c3cc(NC(=O)NCC(=O)N(C)C)ncc23)ccn1` [Example 187], for which the IC50 under setting [1] worked out at 52.3 nM.

Turning to `Cc1cc(-c2n[nH]c3cc(NC(=O)NC4(C#N)CC4)ncc23)ccn1` [Example 201], the IC50 under setting [1] is 92 nM.

`Cc1cc(-c2n[nH]c3cc(NC(=O)NC4(c5ccc(F)cc5)CC4)ncc23)ccn1` [Example 343]: the IC50 under setting [1] worked out at 18.7 nM.

For the compound `C[C@@H](NC(=O)Nc1cc2[nH]nc(-c3ccc(N4CCCCC4)nc3)c2cn1)c1ccc(F)cc1` [Example 244], the IC50 under setting [1] came to 9.85 nM.

As for `C[C@@H](NC(=O)Nc1cc2[nH]nc(C3CCC3)c2cn1)c1ccc(Cl)cc1` [Example 151], the half-inhibitory concentration (IC50) under setting [1] came to 11.1 nM.

Regarding `Cc1cc(-c2n[nH]c3cc(NC(=O)NC4CCCOc5ccccc54)ncc23)no1` (stereo not shown) [Example 689], the IC50 under setting [1] worked out at 5.15 nM.

Consider `CO[C@H](C)CNC(=O)Nc1cc2[nH]nc(-c3ccnc(C)c3)c2cn1` [Example 598], for which the IC50 under setting [1] came to 1.55 nM.

In the case of `CCS(=O)(=O)c1ccc(-c2n[nH]c3cc(NC(=O)N[C@H](C)c4ccc(F)cc4)ncc23)cn1` [Example 311], under setting [1], the IC50 amounted to 26.2 nM.

As for `Cc1cc(-c2n[nH]c3cc(NC(=O)N[C@H](COCC4CC4)c4ccccc4)ncc23)no1` [Example 699], under setting [1], the IC50 was found to be 23.5 nM.

On to `Cc1cc(-c2n[nH]c3cc(NC(=O)NCc4cn[nH]c4)ncc23)ccn1` [Example 420], for which, under setting [1], the IC50 worked out at 2.55 nM.

With `Cc1nocc1-c1n[nH]c2cc(NC(=O)N[C@H](C)c3ccc(F)cc3)ncc12` [Example 243], the half-maximal inhibitory concentration (IC50) under setting [1] amounted to 86.8 nM.

Consider `Cc1cc(-c2n[nH]c3cc(NC(=O)N[C@H]4CN(C)C[C@@H]4C4CCCCC4)ncc23)ccn1` [Example 208], for which the IC50 under setting [1] stood at 6.73 nM.

Turning to `CC(CNC(=O)Nc1cc2[nH]nc(-c3ccc(F)cc3)c2cn1)N(C)C` (stereo not shown) [Example 227], the IC50 under setting [1] was determined as 25.8 nM.

Turning to `Cc1cc(-c2n[nH]c3cc(NC(=O)N[C@@H](C)c4ccccn4)ncc23)ccn1` [Example 176], the IC50 under setting [1] was 41 nM.

In the case of `COc1ncc(-c2n[nH]c3cc(NC(=O)N[C@H](C)c4ccccc4)ncc23)cn1` [Example 313], under setting [1], the IC50 was 0.717 nM.

As for `Cc1cc(-c2n[nH]c3cc(NC(=O)NCc4cnccc4C)ncc23)ccn1` [Example 491], the IC50 under setting [1] was 1.41 nM.

`C[C@@H](NC(=O)Nc1cc2[nH]nc(-c3ccn(C4COC4)n3)c2cn1)c1ccccc1` [Example 638]: the IC50 under setting [1] is 8.99 nM.

Consider `COc1cncc(-c2n[nH]c3cc(NC(=O)N[C@H](C)c4ccc(F)cc4)ncc23)n1` [Example 251], for which, under setting [1], the IC50 is 5.26 nM.

For `Cc1nnc(-c2n[nH]c3cc(NC(=O)N[C@H](C)c4ccccc4)ncc23)o1` [Example 681], the IC50 under setting [1] is 7.7 nM.

For `C[C@@H](NC(=O)Nc1cc2[nH]nc(C(=O)N(C)C)c2cn1)c1ccccc1` [Example 139], under setting [1], the IC50 is 570 nM.

For the compound `COCc1n[nH]c2cc(NC(=O)N[C@H](C)c3ccccc3)ncc12` [Example 599], the IC50 under setting [1] worked out at 7.68 nM.

With `Cc1cc(-c2n[nH]c3cc(NC(=O)NCc4ccc(Cl)cc4Cl)ncc23)ccn1` [Example 443], under setting [1], the IC50 was determined as 11.8 nM.

As for `C[C@@H](NC(=O)Nc1cc2[nH]nc(-c3ccc(N4CCOCC4)nc3)c2cn1)c1ccc(F)cc1` [Example 255], the IC50 under setting [1] came to 0.783 nM.

In the case of `Cc1cc(-c2n[nH]c3cc(NC(=O)NCc4nc5ccccc5[nH]4)ncc23)ccn1` [Example 408], under setting [1], the 50% inhibitory concentration (IC50) was 2 nM.

Take `C[C@@H](NC(=O)Nc1cc2[nH]nc(-c3ccc4nn(C)cc4c3)c2cn1)c1cccc(Cl)c1` [Example 62, 1-[(1R)-1-(3-chlorophenyl)ethyl]-3-[3-(2-methyl-2H-indazol-5-yl)-1H-pyrazolo[4,3-c]pyridin-6-yl]urea]: the IC50 is, setting by setting: under setting [1], 0.672 nM; under setting [2], 0.2 to 1.7 nM.

For the compound `Cc1cc(-c2n[nH]c3cc(NC(=O)N[C@H](C)c4ccc(F)c(F)c4)ncc23)ccn1` [Example 412], the IC50 under setting [1] is 0.303 nM.

On to `O=C(NCC1CC1)Nc1cc2[nH]nc(C3CC3)c2cn1` [Example 148], for which the half-maximal inhibitory concentration (IC50) under setting [1] worked out at 84.3 nM.

As for `Cc1cc(-c2n[nH]c3cc(NC(=O)NC(CF)c4ccccc4)ncc23)ccn1` (stereo not shown) [Example 354], the IC50 under setting [1] came out at 0.474 nM.

As for `Cc1cc(-c2n[nH]c3cc(NC(=O)NCc4ccc(Cl)cc4C)ncc23)ccn1` [Example 515], under setting [1], the IC50 was 2.45 nM.

With `C[C@@H](NC(=O)Nc1cc2[nH]nc(-c3ccnc(F)c3)c2cn1)c1ccc(F)cc1` [Example 645], under setting [1], the IC50 worked out at 0.621 nM.

`Cc1cc(-c2n[nH]c3cc(NC(=O)N[C@H](C)c4ncccc4F)ncc23)ccn1` [Example 232]: the 50% inhibitory concentration (IC50) under setting [1] amounted to 0.699 nM.

In the case of `O=C(Nc1cc2[nH]nc(-c3ccc(F)cc3)c2cn1)NC1CCOC1` (stereo not shown) [Example 612], the concentration for half-maximal inhibition (IC50) under setting [1] was found to be 12.6 nM.

Regarding `C[C@@H](NC(=O)Nc1cc2[nH]nc(-c3ccc(=O)[nH]c3)c2cn1)c1ccc(F)cc1` [Example 282], the IC50 under setting [1] worked out at 0.304 nM.

Regarding `CCOC[C@@H](NC(=O)Nc1cc2[nH]nc(C(F)F)c2cn1)c1ccccc1` [Example 692], under setting [1], the IC50 stood at 12 nM.

For the compound `Cc1cc(-c2n[nH]c3cc(NC(=O)NCc4cncc(F)c4)ncc23)ccn1` [Example 51, 1-[(5-fluoropyridin-3-yl)methyl]-3-[3-(2-methylpyridin-4-yl)-1H-pyrazolo[4,3-c]pyridin-6-yl]urea], the IC50 was 1 nM under setting [1] and 0.2 to 1.7 nM under setting [2].

With `CC1CC(c2n[nH]c3cc(NC(=O)N[C@H](C)c4ccccc4)ncc23)=NO1` (stereo partly shown) [Example 687], the IC50 under setting [1] was 56 nM.

Consider `Cc1cc(-c2n[nH]c3cc(NC(=O)NC(C)CC4CCCO4)ncc23)ccn1` (stereo not shown) [Example 239], for which the IC50 under setting [1] worked out at 5.88 nM.

With `COc1ccnc([C@@H](C)NC(=O)Nc2cc3[nH]nc(-c4ccnc(C)c4)c3cn2)c1` [Example 231], the IC50 under setting [1] stood at 1.53 nM.

On to `C[C@@H](NC(=O)Nc1cc2[nH]nc(C(F)F)c2cn1)c1ccccc1` [Example 670], for which the IC50 under setting [1] came to 13.6 nM.

For `COCCNC(=O)Nc1cc2[nH]nc(-c3ccnc(OC(C)C)c3)c2cn1` [Example 604], the IC50 under setting [1] is 16.1 nM.

For the compound `Cc1cc(-c2n[nH]c3cc(NC(=O)N[C@@H]4CN(C)C[C@H]4c4ccccc4C)ncc23)ccn1` [Example 215, 1-((3S,4R)-1-methyl-4-(o-tolyl)pyrrolidin-3-yl)-3-(3-(2-methylpyridin-4-yl)-1H-pyrazolo[4,3-c]pyridin-6-yl)urea], the IC50 under setting [1] came to 0.537 nM.

In the case of `COC(=O)C1CC1c1n[nH]c2cc(NC(=O)N[C@H](C)c3ccccc3)ncc12` (stereo partly shown) [Example 642], the IC50 under setting [1] is 327 nM.

Regarding `Cc1cc(-c2n[nH]c3cc(NC(=O)NC4(c5ccncc5)CC4)ncc23)ccn1` [Example 356], the IC50 under setting [1] came to 130 nM.

Regarding `Cc1cc(-c2n[nH]c3cc(NC(=O)NC(c4ccc(F)cc4)C4CCCO4)ncc23)ccn1` (stereo not shown) [Example 238], the IC50 under setting [1] turned out to be 0.935 nM.

Turning to `COc1cc(-c2n[nH]c3cc(NC(=O)N[C@H](C)c4ccc(F)cc4)ncc23)cc(C(F)(F)F)n1` [Example 257], the IC50 under setting [1] was 379 nM.

`Cc1cc(-c2n[nH]c3cc(NC(=O)N[C@H](CN)c4ccccc4)ncc23)ccn1` [Example 483]: the IC50 under setting [1] is 0.152 nM.

Regarding `Cc1cc(-c2n[nH]c3cc(NC(=O)NC4CCc5[nH]nc(C)c5C4)ncc23)ccn1` (stereo not shown) [Example 507], under setting [1], the IC50 amounted to 0.762 nM.

For the compound `C[C@@H](NC(=O)Nc1cc2[nH]nc(-c3cccc(Cl)c3)c2cn1)c1ccc(F)c(Cl)c1` [Example 76, 1-[(1R)-1-(3-chloro-4-fluorophenyl)ethyl]-3-[3-(3-chlorophenyl)-1H-pyrazolo[4,3-c]pyridin-6-yl]urea], under setting [1], the half-inhibitory concentration (IC50) is 56.1 nM.

In the case of `C[C@@H](NC(=O)Nc1cc2[nH]nc(C3CC3C(=O)O)c2cn1)c1ccccc1` (stereo partly shown) [Example 660], the IC50 under setting [1] came to 2.66 nM.

With `Cc1cc(-c2n[nH]c3cc(NC(=O)N[C@H]4CN(C)C[C@@H]4c4ccc(F)cc4)ncc23)ccn1` [Example 211], the IC50 under setting [1] was 0.731 nM.

As to `C[C@@H](NC(=O)Nc1cc2[nH]nc(-c3ccn(C)n3)c2cn1)c1ccccc1` [Example 90, 1-[3-(1-methyl-1H-pyrazol-3-yl)-1H-pyrazolo[4,3-c]pyridin-6-yl]-3-[(1R)-1-phenylethyl]urea], the IC50 under setting [1] amounted to 2.19 nM.

Consider `Cc1cc(-c2n[nH]c3cc(NC(=O)N[C@H]4CCOc5cc(F)ccc54)ncc23)ccn1` [Example 276, 1-[(4S)-7-fluoro-3,4-dihydro-2H-chromen-4-yl]-3-[3-(2-methylpyridin-4-yl)-1H-pyrazolo[4,3-c]pyridin-6-yl]urea], for which the half-inhibitory concentration (IC50) under setting [1] amounted to 14.7 nM.

With `CN1CC[C@H](CNC(=O)Nc2cc3[nH]nc(-c4ccc(F)cc4)c3cn2)C1` [Example 322], under setting [1], the IC50 stood at 1.17 nM.

In the case of `Cc1cc(-c2n[nH]c3cc(NC(=O)NCC4CNC(c5ccccc5)C4)ncc23)ccn1` (stereo not shown) [Example 409], under setting [1], the IC50 is 5.69 nM.

For `COc1cc(CNC(=O)Nc2cc3[nH]nc(-c4ccnc(C)c4)c3cn2)on1` [Example 472], the IC50 under setting [1] turned out to be 11.1 nM.

With `Cc1cc(-c2n[nH]c3cc(NC(=O)NCc4cnccc4C(F)(F)F)ncc23)ccn1` [Example 510], the half-maximal inhibitory concentration (IC50) under setting [1] turned out to be 3.66 nM.

On to `C[C@@H](NC(=O)Nc1cc2[nH]nc(-c3ccc4nnn(C)c4c3)c2cn1)c1ccc(F)cc1` [Example 260], for which the IC50 under setting [1] was found to be 0.309 nM.

Take `COc1ncc(-c2n[nH]c3cc(NC(=O)N[C@@H]4CCCOc5ccccc54)ncc23)cn1` [Example 312]: the 50% inhibitory concentration (IC50) under setting [1] turned out to be 0.751 nM.

For `Cc1cc(-c2n[nH]c3cc(NC(=O)NCC(c4ccccc4)C4(O)CCOCC4)ncc23)ccn1` (stereo not shown) [Example 385], the IC50 under setting [1] was found to be 0.939 nM.

Regarding `Cc1cc(-c2n[nH]c3cc(NC(=O)NCc4nnc(C)s4)ncc23)ccn1` [Example 474], under setting [1], the IC50 worked out at 33.7 nM.

As to `Cc1cc(-c2n[nH]c3cc(NC(=O)NCc4nc(N)cs4)ncc23)ccn1` [Example 473], under setting [1], the IC50 worked out at 2.69 nM.
